Like-named read-outs stand apart in the source and are kept apart here.
How the values were obtained:
PRMT5/MEP50 = PRMT5/MEP50 (Homo sapiens (Human), UniProt O14744); experiment: PRMT5 Biochemical Assay (PRMT5/MEP50 enzyme assay on peptide substrate, 3H-SAM Flashplate)
Source text: S-adenosylmethionine (SAM), S-adenosylhomocysteine (SAH), bicine, KCl, Tween20, dimethylsulfoxide (DMSO), bovine skin gelatin (BSG), and Tris(2-carboxyethyl)phosphine hydrochloride solution (TCEP) were purchased from Sigma-Aldrich at the highest level of purity possible. ^3H-SAM was purchase from American Radiolabeled Chemicals with a specific activity of 80 Ci/mmol. 384-well streptavidin Flashplates were purchased from PerkinElmer.
Peptide representative of human histone H4 residues 1-15 was synthesized with a C-terminal linker-affinity tag motif and a C-terminal amide cap by 21st Century Biochemicals.
The amplified genes were sublconed into pENTR/D/TEV (Life Technologies) and subsequently transferred by Gateway™ attL×attR recombination to pDEST8 baculovirus expression vector (Life Technologies).
Protein over-expression was accomplished by infecting exponentially growing Spodoptera frugiperda (SF9) cell culture at 1.2×10^6 cell/ml with a 5000 fold dilution of BIIC stock. Infections were carried out at 27° C. for 72 hours, harvested by centrifugation, and stored at −80° C. for purification.
Flag-PRMT5/6His-MeP50 was eluted with 300 mM Imidazole in the same buffer.
General Procedure for PRMT5/MEP50 Enzyme Assays on Peptide Substrates.
The assays were all performed in a buffer consisting of 20 mM Bicine (pH=7.6), 1 mM TCEP, 0.005% BSG, and 0.002% Tween20, prepared on the day of use. […] DMSO (1 ul) was added to Columns 11, 12, 23, 24, rows A-H for the maximum signal control and 1 ul of SAH, a known product and inhibitor of PRMT5/MEP50, was added to columns 11, 12, 23, 24, rows I-P for the minimum signal control. A cocktail (40 ul) containing the PRMT5/MEP50 enzyme and the peptide was added by Multidrop Combi (Thermo-Fisher). The compounds were allowed to incubate with PRMT5/MEP50 for 30 min at 25 degrees Celsius, then a cocktail (10 ul) containing ^3H-SAM was added to initiate the reaction (final volume=51 ul). […] The assays were stopped by the addition of non-radioactive SAM (10 ul) to a final concentration of 600 uM, which dilutes the ^3H-SAM to a level where its incorporation into the peptide substrate is no longer detectable. 50 ul of the reaction in the 384-well polypropylene plate was then transferred to a 384-well Flashplate and the biotinylated peptides were allowed to bind to the streptavidin surface for at least 1 hour before being washed three times with 0.1% Tween20 in a Biotek ELx405 plate washer. The plates were then read in a PerkinElmer TopCount plate reader to measure the quantity of ^3H-labeled peptide bound to the Flashplate surface, measured as disintegrations per minute (dpm) or alternatively, referred to as counts per minute (cpm).
[formula] [formula] Where dpm=disintegrations per minute, cmpd=signal in assay well, and min and max are the respective minimum and maximum signal controls.
[formula] [formula] Where top and bottom are the normally allowed to float, but may be fixed at 100 or 0 respectively in a 3-parameter fit. The Hill Coefficient normally allowed to float but may also be fixed at 1 in a 3-parameter fit. Y is the % inhibition and X is the compound concentration.

[1] = tested on: symmetric di-methyl arginine in Z-138 cells; experiment: Z-138 Methylation Assay (In Cell Western for symmetric di-methyl arginine and DNA content); assay type: cell-based; conditions: Homo sapiens, read-out: ICW EC50
How it was run: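 Z-138 cells (50,000 cells/mL) treated with compound 96 h at 37 °C, then fixed and stained for symmetric di-methyl arginine (800 nm) with DRAQ5 DNA counterstain (700 nm) on Licor Odyssey.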

Z-138 cell line = experiment: Z-138 Proliferation Assay (Cell Titer Glo, 5 days); assay type: cell-based; conditions: Homo sapiens, 120 h, Z-138 cells, 5 days, read-out: Proliferation EC50
How it was run: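 Z-138 cells exposed 5 days at 37 °C, 5% CO2 to nine-point 3-fold dilutions (final top 20 μM, 0.2% DMSO), in triplicate. Viability read as ATP by CellTiter-Glo luminescence; IC50 from 4-parameter fit of normalized dose-response curves.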

Chain of PRMT5/MEP50 (O14744 other isoform, or with tags, fused parts or gaps): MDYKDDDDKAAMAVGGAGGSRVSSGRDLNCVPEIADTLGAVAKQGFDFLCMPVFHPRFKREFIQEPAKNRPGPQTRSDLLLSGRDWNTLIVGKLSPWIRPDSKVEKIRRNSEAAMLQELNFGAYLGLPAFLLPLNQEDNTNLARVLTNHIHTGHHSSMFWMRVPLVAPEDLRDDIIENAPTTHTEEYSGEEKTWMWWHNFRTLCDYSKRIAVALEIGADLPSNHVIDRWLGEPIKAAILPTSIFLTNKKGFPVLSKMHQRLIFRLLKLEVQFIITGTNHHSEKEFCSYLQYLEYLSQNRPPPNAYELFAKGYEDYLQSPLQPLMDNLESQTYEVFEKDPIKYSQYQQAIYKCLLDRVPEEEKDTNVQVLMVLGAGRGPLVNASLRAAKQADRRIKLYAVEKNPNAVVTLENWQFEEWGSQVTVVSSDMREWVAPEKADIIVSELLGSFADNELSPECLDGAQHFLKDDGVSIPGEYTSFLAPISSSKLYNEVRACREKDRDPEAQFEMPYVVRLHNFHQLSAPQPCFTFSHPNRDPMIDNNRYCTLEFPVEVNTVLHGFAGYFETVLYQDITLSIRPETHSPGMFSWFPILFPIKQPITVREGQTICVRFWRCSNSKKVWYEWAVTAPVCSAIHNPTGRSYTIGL
Chain of PRMT5/MEP50 (Q9BQA1 other isoform, or with tags, fused parts or gaps partner): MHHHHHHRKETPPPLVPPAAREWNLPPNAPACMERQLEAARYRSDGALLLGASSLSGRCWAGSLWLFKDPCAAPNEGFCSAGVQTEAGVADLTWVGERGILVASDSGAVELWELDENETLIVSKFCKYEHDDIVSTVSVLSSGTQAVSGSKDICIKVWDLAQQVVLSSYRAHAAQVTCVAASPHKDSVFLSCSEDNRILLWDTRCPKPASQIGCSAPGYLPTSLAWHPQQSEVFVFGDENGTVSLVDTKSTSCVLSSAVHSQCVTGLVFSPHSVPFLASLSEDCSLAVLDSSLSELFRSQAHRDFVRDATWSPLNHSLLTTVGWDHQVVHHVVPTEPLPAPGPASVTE

| SMILES | IC50 (PRMT5/MEP50; PRMT5 biochemical assay) | EC50 ([1]; In Cell Western methylation) | EC50 (Z-138 cell line; Cell Titer Glo) | IC50 (PRMT5/MEP50) | further results |
| --- | --- | --- | --- | --- | --- |
| CC(=O)N1CC(Nc2cc(C(=O)NC[C@H](O)CN3CCc4ccccc4C3)nc(C(F)(F)F)n2)C1 [Compound 474] | < 100 nM | < 100 nM | 101 to 1000 nM | – | – |
| N[C@H]1CC[C@H](Nc2cc(C(=O)NC[C@H](O)CN3CCc4ccccc4C3)ncn2)CC1 [Compound 595] | < 100 nM | < 100 nM | > 5000 nM | – | – |
| CC(=O)N1CCC(Nc2cc(C(=O)NCC(C)CN3CCc4ccccc4C3)ncn2)CC1 (stereo not drawn) [Compound 658] | < 100 nM | < 100 nM | 101 to 1000 nM | – | – |
| Cc1cc(C(=O)NC[C@H](O)CN2CCc3ccccc3C2)cc(NC2CCC2)n1 [Compound 348] | – | – | – | < 100 nM | EC50 [1]: < 100 nM; EC50 (Z-138 cell line): 101 to 1000 nM |
| CN1CCN(c2nc(NC3COC3)cc(C(=O)NC[C@H](O)CN3CCc4ccccc4C3)n2)CC1 [Compound 394] | – | – | – | < 100 nM | EC50 [1]: < 100 nM; EC50 (Z-138 cell line): < 100 nM |
| CC(C)Cc1nc(NC2COC2)cc(C(=O)NC[C@H](O)CN2CCc3ccccc3C2)n1 [Compound 464] | < 100 nM | < 100 nM | < 100 nM | – | – |
| Cc1cc(Nc2cc(C(=O)NC[C@H](O)CN3CCc4ccccc4C3)ccn2)n[nH]1 [Compound 433] | < 100 nM | < 100 nM | 1000 to 10000 nM | – | – |
| CC(=O)N1CCC(Nc2cc(C(=O)NC[C@H](O)CN3CCc4ccccc4C3)cc(N3CCN(C(C)=O)CC3)n2)CC1 [Compound 613] | < 100 nM | < 100 nM | 101 to 1000 nM | – | – |
| CC(=O)N1CCC(Nc2cc(C(=O)NC[C@H](O)CN3CCc4ccccc4C3)cc(N(C)C)n2)CC1 [Compound 610] | < 100 nM | < 100 nM | < 100 nM | – | – |
| O=C(NC[C@H](O)CN1CCc2ccccc2C1)c1cnnc(NC2COC2)c1 [Compound 545] | < 100 nM | < 100 nM | 1000 to 10000 nM | – | – |
| CCC(=O)N1CC(Nc2cc(C(=O)NC[C@H](O)CN3CCc4ccccc4C3)ncn2)C1 [Compound 574] | < 100 nM | < 100 nM | < 100 nM | – | – |
| CC(=O)N1CC(Nc2cc(C(=O)NC[C@H](O)CN3CCc4ccccc4C3)c(C)cn2)C1 [Compound 380] | – | – | – | < 100 nM | EC50 [1]: < 100 nM; EC50 (Z-138 cell line): 101 to 1000 nM |
| CC(=O)N1CC(Oc2cc(C(=O)NC[C@H](O)CN3CCc4ccccc4C3)ncn2)C1 [Compound 475] | < 100 nM | < 100 nM | 101 to 1000 nM | – | – |
| CC(NC(=O)c1cc(NC2COC2)ncn1)[C@H](O)CN1CCc2ccccc2C1 (stereo partly drawn) [Compound 493] | 1000 to 10000 nM | > 1000 nM | – | – | – |
| CCN(c1cccc(C(=O)NCC(O)CN2CCc3ccccc3C2)c1)C1CCOCC1 (stereo not drawn) [Compound 47] | – | – | – | 101 to 1000 nM | EC50 [1]: 101 to 1000 nM |
| O=C(NCC(O)CN1CCc2ccccc2C1)c1cc(NC2CCOCC2)ccc1F (stereo not drawn) [Compound 57, N-(3-(3,4-dihydroisoquinolin-2(1H)-yl)-2-hydroxypropyl)-2-fluoro-5-((tetrahydro-2H-pyran-4-yl)amino)benzamide] | – | – | – | 101 to 1000 nM | – |
| CC1(C)CC(Nc2cccc(C(=O)NCC(O)CN3CCc4ccccc4C3)c2)CCO1 (stereo not drawn) [Compound 53, N-(3-(3,4-dihydroisoquinolin-2(1H)-yl)-2-hydroxypropyl)-3-((2,2-dimethyltetrahydro-2H-pyran-4-yl)amino)benzamide] | – | – | – | 101 to 1000 nM | – |
| CS(=O)(=O)Nc1ccccc1C(=O)NCC(O)CN1CCc2ccccc2C1 (stereo not drawn) [Compound 27] | – | – | – | 1000 to 10000 nM | – |
| CCC(=O)N1CCC(Nc2cc(C(=O)NC[C@H](O)CN3CCc4ccccc4C3)ccn2)CC1 [Compound 454] | < 100 nM | – | < 100 nM | – | – |
| CC(=O)N1CCC(Nc2cc(C(=O)NC[C@H](O)CN3Cc4ccccc4CC3C)ccn2)CC1 (stereo partly drawn) [Compound 696] | 1000 to 10000 nM | 101 to 1000 nM | – | – | – |
| COc1cc(NC2CCOCC2)cc(C(=O)NCC(O)CN2CCc3ccccc3C2)c1 (stereo not drawn) [Compound 56] | – | – | – | 101 to 1000 nM | – |

| SMILES | IC50 (PRMT5/MEP50; PRMT5 biochemical assay) | EC50 ([1]; In Cell Western methylation) | EC50 (Z-138 cell line; Cell Titer Glo) | IC50 (PRMT5/MEP50) | further results |
| --- | --- | --- | --- | --- | --- |
| NC1=NC(C(=O)NC[C@H](O)CN2CCc3ccccc3C2)=CC2=NC(CO)CN12 (stereo partly drawn) [Compound 625] | 101 to 1000 nM | – | > 5000 nM | – | – |
| O=C(NC[C@H](O)CN1CCc2ccccc2C1)c1ccnc(NC2CCN(C(=O)C3CCC3)CC2)c1 [Compound 455] | < 100 nM | – | < 100 nM | – | – |
| CN(C)C(=O)CN1CC(Nc2cc(C(=O)NC[C@H](O)CN3CCc4ccccc4C3)ncn2)C1 [Compound 623] | < 100 nM | – | 10000 to 50000 nM | – | – |
| CC(Nc1cccc(C(=O)NCC(O)CN2CCc3ccccc3C2)c1)C1CCOCC1 (stereo not drawn) [Compound 52, N-(3-(3,4-dihydroisoquinolin-2(1H)-yl)-2-hydroxypropyl)-3-((1-(tetrahydro-2H-pyran-4-yl)ethyl)amino)benzamide] | – | – | – | 101 to 1000 nM | – |
| O=C(NCC(O)CN1CCc2ccccc2C1)c1cccc(CN2CCOCC2)c1 (stereo not drawn) [Compound 51, N-(3-(3,4-dihydroisoquinolin-2(1H)-yl)-2-hydroxypropyl)-3-(morpholinomethyl)benzamide] | – | – | – | 101 to 1000 nM | – |
| O=C(NCC(O)CN1CCc2ccccc2C1)c1cccc(C(=O)N2CCOCC2)c1 (stereo not drawn) [Compound 46, N-(3-(3,4-dihydroisoquinolin-2(1H)-yl)-2-hydroxypropyl)-3-(morpholine-4-carbonyl)benzamide] | – | – | – | 1000 to 10000 nM | – |
| NS(=O)(=O)c1ccccc1C(=O)NCC(O)CN1CCc2ccccc2C1 (stereo not drawn) [Compound 33] | – | – | – | 1000 to 10000 nM | – |
| CC(=O)N1CCC(Nc2cc(C(=O)NC[C@H](O)CN3Cc4ccccc4C(O)C3)ccn2)CC1 (stereo partly drawn) [Compound 680] | > 10000 nM | > 1000 nM | – | – | – |
| COc1c(NC2COC2)ncnc1C(=O)NC[C@H](O)CN1CCc2ccccc2C1 [Compound 338] | – | – | – | 1000 to 10000 nM | – |
| O=C(NCC(F)CN1CCc2ccccc2C1)c1cc(NC2COC2)ncn1 (stereo not drawn) [Compound 697] | 1000 to 10000 nM | > 1000 nM | – | – | – |
| O=C(NCC(O)CN1CCc2ccccc2C1)c1cccc(NC2COC2)c1 (stereo not drawn) [Compound 50, N-(3-(3,4-dihydroisoquinolin-2(1H)-yl)-2-hydroxypropyl)-3-(oxetan-3-ylamino)benzamide] | – | – | – | 101 to 1000 nM | – |
| O=C(NCC(O)CN1CCc2ccccc2C1)c1cccc(OC2CCOCC2)c1 (stereo not drawn) [Compound 48] | – | – | – | 101 to 1000 nM | EC50 [1]: 101 to 1000 nM |
| CC(=O)N1CC(Nc2cc(C(=O)NCC(N)CN3CCc4ccccc4C3)ncn2)C1 (stereo not drawn) [Compound 699] | 101 to 1000 nM | – | – | – | – |
| CN(c1cccc(C(=O)NCC(O)CN2CCc3ccccc3C2)c1)C1CCOCC1 (stereo not drawn) [Compound 49, N-(3-(3,4-dihydroisoquinolin-2(1H)-yl)-2-hydroxypropyl)-3-(methyl(tetrahydro-2H-pyran-4-yl)amino)benzamide] | – | – | – | 101 to 1000 nM | – |
| CC(=O)N1CCC(Nc2cc(C(=O)NCC(N)CN3CCc4ccccc4C3)ncn2)CC1 (stereo not drawn) [Compound 701] | 101 to 1000 nM | – | – | – | – |
| CC(=O)N1CCC(Nc2cc(C(=O)NC[C@H](O)CN3Cc4ccccc4C(C)C3)ccn2)CC1 (stereo partly drawn) [Compound 695] | > 10000 nM | > 1000 nM | – | – | – |
| O=C(NC[C@@H](O)CN1CCc2ccccc2C1)c1cccc(NC2CCOC2)c1 (stereo partly drawn) [Compound 81] | – | – | – | – | EC50 [1]: 101 to 1000 nM; EC50 (Z-138 cell line): 1000 to 10000 nM |
| CC(=O)N1CCC(Nc2cncc(C(=O)NC[C@H](O)CN3CCc4ccccc4C3)c2)CC1 [Compound 302] | – | – | – | – | EC50 [1]: < 100 nM; EC50 (Z-138 cell line): < 100 nM |
| O=C(NC[C@H](O)CN1CCc2ccccc2C1)c1ccnc(NCc2cccnc2)c1 [Compound 190] | – | – | – | – | EC50 [1]: < 100 nM; EC50 (Z-138 cell line): 101 to 1000 nM |
| CN(CCOc1cccc(C(=O)NCC(O)CN2CCc3ccccc3C2)c1)CC(N)=O (stereo not drawn) [Compound 277] | – | – | – | – | EC50 [1]: < 100 nM; EC50 (Z-138 cell line): 1000 to 10000 nM |
| O=C(NC[C@H](O)CN1CCc2ccccc2C1)c1ccc2c(c1)CCCC2 [Compound 247] | – | – | – | – | EC50 [1]: 101 to 1000 nM; EC50 (Z-138 cell line): 1000 to 10000 nM |

Reference: patent publication US10307413B2, “Tetrahydro- and dihydro-isoquinoline PRMT5 inhibitors and uses thereof” (Epizyme, Inc., priority 2013, dated 2019)
